# Source: patent publication US7098219B2, “Inhibitors of cellular efflux pumps of microbes” (Wockhart Limited, priority 2000, dated 2006)
# Test system: Mef Efflux Pump of Streptococcus pneumoniae 3514 and Streptococcus pyogenes 26-00
# Experiment: Two plate diffusion assay for macrolide (Mef) efflux pump inhibitors, azithromycin plate versus control plate
# Format: cell-based
# Details: zone of inhibition in antibiotic plate (method: azithromycin 0.5 mcg/ml; footnote: levofloxacin) minus water control plate; strain not given
row,Compound,Difference in Zone diameter Z1 (mm)
1,"C[C@H]1CCOc2c(N3CCC(N)CC3)c(F)cc3c(=O)c(C(=O)O)cn1c23.Cl [Example 40 (Mef), 10-Fluoro-11-(4-aminopiperidin-1-yl)-3,4-dihydro-4(S)-methyl-8-oxo-2H,8H-pyrido[1,2,3-ef]-1,5-benzoxazepin-7-carboxylic acid, hydrochloride]",13
2,"CNC1CCN(c2c(F)c(N)c3c(=O)c(C(=O)O)cn(C4CC4)c3c2OC)CC1(C)C (stereo not shown) [Example 2 (Mef), 5-Amino-1-cyclopropyl-6-fluoro-8-methoxy-1,4-dihydro-7-{4′-(methylamino)-3′,3′-dimethylpiperidin-1-yl}-4-oxo-quinoline-3-carboxylic acid]",8
3,"Nc1c(F)c(NC2CN3CCC2CC3)c(F)c2c1c(=O)c(C(=O)O)cn2C1CC1 (stereo not shown) [Example 14 (Mef), 5-Amino-1-cyclopropyl-6,8-difluoro-1,4-dihydro-7-(3′-quinuclidinyl-3′-yl-amino)-4-oxo-quinoline-3-carboxylic acid]",8
4,"CCOC(=O)COC(=O)c1cn(C2CC2)c2c(OC)c(N3CCC(N)C(C)(C)C3)c(F)cc2c1=O (stereo not shown) [Example 5 (Mef), Ethoxycarbony methyl 1-Cyclopropyl-6-fluoro-8-methoxy-1,4-dihydro-7-(4′-amino-3′,3′-dimethylpiperidin-1-yl)-4-oxo-quinoline-3-carboxylate]",13
5,"COc1c(N2CCC(NC(=O)[C@@H](N)CC(=O)O)C(C)(C)C2)c(F)cc2c(=O)c(C(=O)O)cn(C3CC3)c12.Cl (stereo partly shown) [Example 11 (Mef), 1-Cyclopropyl-6-fluoro-8-methoxy-1,4-dihydro-7-(4′-(L)-aspartylamino-3′,3′-dimethylpiperidin-1-yl}-4-oxo-quinoline-3-carboxylic acid hydrochloride]",6
6,NC1CCN(c2nc3c(cc2F)c(=O)c(C(=O)O)cn3-c2ccc(F)cc2F)C1 (stereo not shown) [Example 22 (Mef)],8
7,"C[C@H]1CCc2c(N3CCC(O)C(F)C3)c(F)cc3c(=O)c(C(=O)O)cn1c23 (stereo partly drawn) [Example 39 (Mef), (S)-(−)-9-Fluoro-6,7-dihydro-8-(4′-hydrox 3′-fluoropiperidin-1-yl)-5-methyl-1-oxo-1H,5H-benzo[i,j]quinolizine-2-carboxylic acid]",8
8,"CC1CN(c2nc3c(cc2F)c(=O)c(C(=O)O)cn3-c2ccc(F)cc2F)CC(C)C1N (stereo not shown) [Example 37 (Mef), 1-(2,4-difluorophenyl)-6-fluoro-1,4-dihydro-7-(4-amino-3,5-dimethylpiperidin-1-yl)-4-oxo-1,8-naphthyridine-3-carboxylic acid]",7
9,"O=C(O)c1cn(-c2ccc(F)cc2F)c2nc(N3C[C@@H]4[C@H](C3)[C@H]4NCc3ccccc3)c(F)cc2c1=O [Example 23 (Mef), 1-(2,4-Difluorophenl)-6-fluoro-1,4-dihydro-7-{(1∝,5∝,6∝)-6-amino-N-benzyl-3-azabicyclo[3.1.0]hex-6-yl}-4-oxo-1,8-naphthyridine-3-carboxylic acid]",15
10,"Nc1c(F)c(C2(N)C3CN(Cc4ccccc4)CC32)c(F)c2c1c(=O)c(C(=O)O)cn2C1CC1 (stereo not shown) [Example 15 (Mef), 5-Amino-1-cyclopropyl-6,8-difluoro-1,4-dihydro-7-{(1∝,5∝,6∝)-6-amino-N-benzyl-3-azabicyclo[3.1.0]hex-6-yl}-4-oxo-quinoline-3-carboxylic acid]",14

# Test system: Staphylococcus aureus 1199 B NorA+
# Experiment: not given
# Format: cell-based
# Details: combination with ciprofloxacin, broth microdilution checkerboard, 35° C. 20 hours; FIC index ≦0.5 synergistic, 0.5–2.0 additive, >2.0 antagonistic
# Description: Testing method for inhibition of the efflux pump of Staphylococcus aureus 1199B NorA^+
# […]. Victor Lorian, Md., Fourth edition 1996, pp 333–338).
# In short, the assay involves broth microdilution method performed as recommended by the National Committee for Clinical Laboratory Standards (NCCLS) 1997 (Methods for Dilution of Antimicrobial Susceptibility Tests for Bacteria that Grow Aerobically, Fourth edition; Approved Standard, NCCLS document M7-A4, vol. 17, No. 2). The test organism used for the assay is Staphylococcus aureus 1199 B NorA^+.
# […]. Stock solutions of the efflux pump inhibitors tested are prepared in dimethyl sulfoxide (DMSO) at a final concentration of 5 mg/ml. Stock solutions are further diluted in Mueller Hinton Broth as per the need of the assay. Ciprofloxacin is dissolved in water.
# The checkerboard assay is performed in microtiter plates. […] The efflux pump inhibitor is diluted in the Y-axis, each row containing an equal concentration of efflux pump inhibitor. The result of these manipulations is that each well of the microtiter plate contains a unique combination of concentrations of the two agents. Bacterial inoculum is added at 5×10^5 CFU/ml. Microtiter plates are incubated at 35° C. for 20 hours. Reading is done by visibly noting turbidity and confirmed using a microtiter plate reader (Molecular Devices). The FIC index is calculated as
# (A) is the concentration of the experimental efflux pump inhibitor in the well that is the lowest inhibitory concentration in the Y-axis. (MICA) is the MIC of Staphylococcus aureus to experimental efflux pump inhibitor alone. FICA is the fractional inhibitory concentration of an experimental efflux pump inhibitor. […] (Antimicrobial Combination In Antibiotics in Laboratory Medicine, Ed. Victor Lorian, Md., Fourth edition 1996, pp 333–338).
row,Compound,FIC INDEX
1,"CCOC(=O)c1cn([C@@H](C)CCSc2ccccc2)c2c(F)c(N3CCC(O)CC3)c(F)cc2c1=O [Example 38 (NorA), Ethyl 6,8-Difluoro-7-(4-hydroxypiperidin-1-yl)-1-(1-phenylthio-3(S)-but-3-yl)-1,4-dihydro-4-oxo-quinoline-3-carboxylate]",0.100
2,"CC1CN(c2c(F)c(N)c3c(=O)c(C(=O)O)cn(C4CC4)c3c2F)CC(C)N1C(=O)C(C)(C)C (stereo not shown) [Example 37 (NorA), 5-Amino-1-cyclopropyl-6,8-difluoro-1,4-dihydro-7-(3′,5′-dimethyl-4-pivaloylpiperazin-1-yl)-4-oxo-quinoline-3-carboxylic acid]",0.314
3,"COc1c(N2CCNC(C)C2)c(F)cc2c(=O)c(C(=O)O)cn(C3CC3)c12 (stereo not shown) [Example 23 (NorA), 1-Cyclopropyl-6-fluoro-8-methoxy-1,4-dihydro-7-(3′-methylpiperazin-1-yl)-4-oxo-quinoline-3-carboxylic acid]",0.314
4,"Cc1c(F)c(N2CCNC(C)(C)C2)cc2c1c(=O)c(C(=O)O)cn2C1CC1 [Example 18 (NorA), 1-Cyclopropyl-6-fluoro-1,4-dihydro-5-methyl-7-(3′,3′-dimethylpiperazin-1-yl)-4-oxo-quinoline-3-carboxylic acid]",0.314
5,"CCn1cc(C(=O)O)c(=O)c2cc(F)c(N3CCC(OC(C)=O)CC3)c(F)c21 [Example 2 (NorA), 1-Ethyl-6,8-fluoro-1,4-dihydro-7-(4′-acetoxypiperidin-1-yl)-4-oxo-quinoline-3-carboxylic acid]",0.314
6,Nc1c(F)c(NC2CCN(c3nc4c(cc3F)c(=O)c(C(=O)O)cn4C3CC3)C2)c(F)c2c1c(=O)c(C(=O)O)cn2C1CC1 (stereo not shown) [Bis compound 3],0.314
7,"CC1CC(O)CN1c1c(F)c(N)c2c(=O)c(C(=O)O)cn(-c3ccc(F)cc3F)c2c1F (stereo not shown) [Example 46 (NorA), 5-Amino-1-(2′,4′-difluorophenyl)-6,8-difluoro-1,4-dihydro-7-(3′-hydroxy-5′-methylpyrrolidin-1-yl)-4-oxo-quinoline-3-carboxylic acid]",0.314
8,"CC1CN(c2c(F)c(N)c3c(=O)c(C(=O)O)cn(-c4ccccc4C(F)(F)F)c3c2F)CC(C)N1 (stereo not shown) [Example 42 (NorA), 5-Amino-1-(2′-trifluoromethylphenyl)-6,8-difluoro-1,4-dihydro-7-(3′,5′-dimethylpiperizine-1-yl)-4-oxo-quinoline-3-carboxylic acid]",0.314
9,"O=C(O)c1cn(-c2ccc(F)cc2F)c2nc(N3CCN(c4cc5c(cc4F)c(=O)c(C(=O)O)cn5C4CC4)CC3)c(F)cc2c1=O [Bis compound 8, N-1-{7-(1-(2,4-difluorophenyl)-6-fluoro-1,4-dihydro-4-oxo-1,8-naphthyridine-3-carboxylic acid)}-N-4-{7-(1-cyclopropyl-6-fluoro-1,4-dihydro-4-oxo-quinoline-3-carboxylic acid)}-piperazine]",0.192
10,"C[C@H](N)C(=O)N[C@@H](C)C(=O)NC1CCN(c2c(F)c(N)c3c(=O)c(C(=O)O)cn(C4CC4)c3c2F)C1 (stereo partly drawn) [Example 27 (NorA), 5-Amino-1-cyclopropyl-6,8-difluoro-1,4-dihydro-7-{3′-(L-Ala-L-Alaamino)pyrrolidin-1-yl}-4-oxo-quinoline-3-carboxylic acid]",0.128
11,"CC1CN(c2cc3c(cc2F)c(=O)c(C(=O)O)cn3C2CC2)CC(C)C1O (stereo not shown) [Example 14 (NorA), 1-Cyclopropyl-6-fluoro-1,4-dihydro-7-(4′-hydroxy-3′,5′-dimethylpiperidin-1-yl)-4-oxo-quinoline-3-carboxylic acid]",0.314
12,"CCOC(=O)COC(=O)c1cn2c3c(c(N4CCC(O)CC4)c(F)cc3c1=O)CC[C@H]2C [Example 57 (NorA), Ethoxy carbonylmethyl (R)-(+)-9-fluoro-6,7-dihydro-8-(4′-hydroxypiperidin-1-yl)-5-methyl-1-oxo-1H,5H-benzo[i,j]quinolizine-2-carboyxlate]",0.400
13,"CCn1cc(C(=O)O)c(=O)c2c(N)c(F)c(N3CC(N)CC3C)c(F)c21 (stereo not shown) [5 (NorA), 5-Amino-1-ethyl-6,8-difluoro-1,4-dihydro-7-(3′-amino-5′-methylpyrrolidin-1-yl)-4-oxo-quinoline-3-carboxylic acid]",0.378
14,"CC(=O)OC1CCN(c2cc3c(cc2F)c(=O)c(C(=O)O)cn3C2CC2)CC1 [Example 11 (NorA), 1-Cyclopropyl-6-fluoro-1,4-dihydro-7-(4′-acetoxypiperidin-1-yl)-4-oxo-quinoline-3-carboxylic acid]",0.282
15,"CCC(=O)OC1CCN(c2c(F)c(N)c3c(=O)c(C(=O)O)cn(C4CC4)c3c2F)CC1 [Example 30 (NorA), 5-Amino-1-cyclopropyl-6,8-difluoro-1,4-dihydro-7-(4′-propionoxypiperidin-1-yl)-4-oxo-quinoline-3-carboxylic acid]",0.314
